The text below walks through data of patent US12252708B2, “Living mammalian cells modified with functional modular nanoparticles” (UNM Rainforest Innovations, priority 2018, dated 2025).

This assay has as its system HeLa cells. As to the kind of experiment: Cytoprotection test to DOX. In kind it is cell-based. The following applies: native HeLa cells and SupraCell-MIL-100(Fe); nearly identical dose response curve; 2 hours.

Protocol: Then, the anticancer drug doxorubicin (diameter about 1.6 nm) or cytotoxic silver (Ag) nanocrystals (diameter about 5.0 nm) were added into the culture medium at different concentrations.
Cytoprotection test to DOX. The cytoprotection test was performed on Supracell-MIL-100 (Fe). Briefly, the native HeLa cells and Supracell-MIL-100 (Fe) were seeded on 96-well plate at the density of 200,000 cells/mL. Then different concentration of DOX (0.01, 0.1, 1.0, 10, 20, and 50 μg/ML) was added in the cell culture media under cell culture condition. After incubation for 2 hours, the viability of the cells or SupraCells was measured by CellTiter-Glo® 2.0 Assay.

Regarding `COc1cccc2c1C(=O)c1c(O)c3c(c(O)c1C2=O)C[C@@](O)(C(=O)CO)C[C@@H]3O[C@H]1C[C@H](N)[C@H](O)[C@H](C)O1` [doxorubicin], the “sensitivity of cells to the drug (viability)” value is reported as “sensitive”.
